From PubChem BioAssay AID588780 (Sanford-Burnham Center for Chemical Genomics, 2011)
pIC50: −log10 of the molar value. Calls of active or inactive are those of the source.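 The calls were made as follows: active = compounds whose fitted half-maximal concentration in the cell-protection dose series is at or below a set limit; inactive = the rest.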

System: H9c2 cardiomyocytes, 2-deoxyglucose stress, ATP luminescence, 2 h
Assay: protection of cardiomyocytes from 2-deoxyglucose injury, dose response, cell-based, 2-deoxyglucose stress, uHTS hits (AID 588780)

| Structure (SMILES) | IC50 | pIC50 |
| --- | --- | --- |
| COC(=O)c1cc(C(=O)OCC(=O)N2c3ccccc3NC(=O)C2(C)C)cc([N+](=O)[O-])c1 | 39 µM (inactive) | – |
| CCOC(=O)c1cccc(NC(=O)CSc2nc3ccccc3c(=O)n2CCOC)c1 | 34.1 µM (inactive) | – |
| CCn1c(O)c(/C=N/N=C2CCCCC2)c2cc(C3=NNC(=O)CC3)ccc21 | – | 4.90 |
| NC(=O)c1ccccc1OCC(=O)Nc1cccnc1Cl | > 79 µM (inactive) | – |
| CNS(=O)(=O)c1cc2c3c(cccc3c1)C(=O)NC2=O | > 79 µM (inactive) | – |
| Cc1nc2c(c(=O)n1CCC1=CCCCC1)c1nc3ccccc3nc1n2/N=C/c1ccccc1 | – | 4.93 |
| COc1ccc(CCNC(=O)c2cc(C(=O)c3cc(C)ccc3O)cn(CCc3ccc(OC)cc3)c2=O)cc1 | > 79 µM (inactive) | – |
| Cn1c2ccccc2c2cc(/C=N/NC(=O)c3cc(O)ccc3O)ccc21 | > 79 µM (inactive) | – |
| CC(=O)Nc1cccc(NC(=O)c2cc(-c3cccnc3)nc3ccc(Cl)cc23)c1 | > 79 µM (inactive) | – |
| COc1cc(-c2cc(NC(C)=O)c3ncc(-c4cc(OC)c(OC)c(OC)c4)n3c2)cc(OC)c1OC | – | 5.28 |
| COc1cccc(NC(=O)CN(C)C(=O)Cc2n[nH]c(=O)c3ccccc23)c1 | > 79 µM (inactive) | – |
| COc1ccc(C(=O)NNC(=O)CCc2nc3ccccc3c(=O)[nH]2)cc1 | > 79 µM (inactive) | – |
| CCOc1ccc(NCc2cc3c(C(C)(C)C)nn(-c4ccccc4)c3[nH]c2=O)cc1 | > 79 µM (inactive) | – |
| Cc1ccc(N=Cc2cc(Br)cc(Cl)c2O)cc1 | > 79 µM (inactive) | – |
| CCOC(=O)CSc1nc2sc(C)c(C)c2c(=O)[nH]1 | > 79 µM (inactive) | – |
| CC12C=CC(=O)CC1CCC1C2CCC2(C)C(O)C(O)CC12 (configuration not stated) | – | 4.91 |
| COc1ccc(N(Cc2cc3cc(OC)ccc3[nH]c2=O)C(=O)c2cccnc2)cc1 | > 79 µM (inactive) | – |
| CC1CN(c2nn3c(=O)c4ccccc4nc3c3ccccc23)CC(C)O1 (configuration not stated) | > 79 µM (inactive) | – |
| COc1cc(-n2c(=O)c3ccccc3n(Cc3cc(=O)n4ccccc4n3)c2=O)cc(OC)c1OC | > 79 µM (inactive) | – |
| O=C(CN1C(=O)CCC1=O)Nc1nc(-c2ccccn2)cs1 | 43.2 µM (inactive) | – |
| O=C(Nc1cccc(/C=C/c2ccccn2)c1)c1ccc(-n2cncn2)cc1 | 42.9 µM (inactive) | – |
| Cc1cccc(NC(=O)c2nc[nH]c2C(=O)NCC(=O)OCc2ccccc2)c1 | > 79 µM (inactive) | – |
| O=C(CCc1nc2ccccc2c(=O)[nH]1)Nc1nc(-c2cccs2)cs1 | > 79 µM (inactive) | – |

| Structure (SMILES) | IC50 | pIC50 |
| --- | --- | --- |
| O=C(CSc1nc2ccccc2c(=O)[nH]1)N1CCOCC1 | > 79 µM (inactive) | – |
| COc1ccc(-c2csc(/C(C#N)=C(\O)CSc3nccn3C)n2)cc1OC | > 79 µM (inactive) | – |
| CCOc1ccc(-n2cc(-c3ccccc3)c3c(N4CCOCC4)ncnc32)cc1 | > 79 µM (inactive) | – |
| O=C(N/N=C/c1ccccn1)c1cc(-c2ccncc2)nc2ccccc12 | > 79 µM (inactive) | – |
| Cc1nn(C)cc1C(C(=O)NC1CCCCC1)N(C(=O)Cc1cccs1)c1ccc(Cl)cc1 (configuration not stated) | – | 4.56 |
| Cc1ccc(C(=O)Nc2cccc(C(F)(F)F)c2)cc1NC(=O)c1csc(-c2ccncc2)n1 | > 79 µM (inactive) | – |
| COc1cc2c(cc1OC)C(COc1ccc3c(C)cc(=O)oc3c1)N(C(=O)c1ccco1)CC2 (configuration not stated) | – | 5.00 |
| Cn1c2c(c(=O)n(C)c1=O)C(c1ccc(Br)cc1)Nc1ccccc1O2 (configuration not stated) | > 79 µM (inactive) | – |
| COC(=O)c1ccc(C(C(=O)NCc2ccccc2)N(Cc2cccs2)C(=O)c2cnccn2)cc1 (configuration not stated) | – | 4.83 |
| COC(=O)c1ccc(CSc2ccc3nnc(-c4cccc(F)c4)n3n2)o1 | – | 4.56 |
| O=[N+]([O-])c1ccc(Nc2nc(N/N=C/c3cccc(F)c3)nc(N3CCCC3)n2)cc1 | > 79 µM (inactive) | – |
| COc1ccc(OCC(O)Cn2c(Nc3cccc(C)c3)nc3c2c(=O)n(C)c(=O)n3C)cc1 (configuration not stated) | > 79 µM (inactive) | – |
| Cc1sc2nc(CSCC(=O)N(C)CC(=O)Nc3ccc(F)cc3)[nH]c(=O)c2c1C | > 79 µM (inactive) | – |
| O=C(CN(C(=O)Cn1nnc(-c2cccs2)n1)c1cnc2ccccc2c1)NCC1CCCO1 (configuration not stated) | > 79 µM (inactive) | – |
| CN(C)S(=O)(=O)c1cccc(NC(=O)COC(=O)c2ccc([N+](=O)[O-])o2)c1 | > 79 µM (inactive) | – |
| O=C(NCc1ccco1)C(c1ccccc1)N(C(=O)Cc1cccs1)c1ccccc1F (configuration not stated) | > 79 µM (inactive) | – |
| NC(=O)C1=C(c2ccccc2)c2ccccc2C1=O | > 79 µM (inactive) | – |
| COc1ccc(C(C(=O)NCc2ccccc2)N(Cc2ccco2)C(=O)c2snc(C(N)=O)c2N)cc1 (configuration not stated) | > 79 µM (inactive) | – |
| COc1ccc(-n2nc(C(=O)NCC(=O)Nc3cc(OC)c(OC)c(OC)c3)c3ccccc3c2=O)cc1Cl | > 79 µM (inactive) | – |
| CCN(CC(=O)Nc1cc(Cl)ccc1C)C(=O)C1CCN(c2ncnc3sc(C)c(C)c23)CC1 | > 79 µM (inactive) | – |
| CC1Cc2ccccc2N1C(=O)COC(=O)c1n[nH]c(=O)c2ccccc12 (configuration not stated) | > 79 µM (inactive) | – |
| Cc1cc(C)cc(C(=O)Nc2ccc(NC(=O)c3cccs3)cc2)c1 | > 79 µM (inactive) | – |
| COc1cc(/C=C/C(=O)CC(=O)/C=C/c2ccc(O)c(OC)c2)ccc1O | > 79 µM (inactive) | – |

| Structure (SMILES) | IC50 | pIC50 |
| --- | --- | --- |
| O=Cc1ccc(OCc2cccc(C(F)(F)F)c2)cc1O | – | 4.55 |
| CCN(CC(=O)Nc1ccc(OC)cc1)C(=O)c1cc(-c2cccs2)nn1-c1ccccc1 | – | 5.04 |
| CNC(=O)COC(=O)/C=C/c1cn(-c2ccccc2)nc1-c1ccc(C)o1 | – | 4.93 |
| CCOC(=O)C1CCN(c2cc3c(cc2NC(=O)c2ccccc2Br)n(C)c(=O)n3C)CC1 | 45.5 µM (inactive) | – |
| COc1cccc(C(=O)Nc2cccc(-c3nnc(-c4ccco4)o3)c2)c1 | > 79 µM (inactive) | – |
| O=c1[nH]nc(CNc2ccc(O)cc2)c2ccccc12 | > 79 µM (inactive) | – |
| COc1cc(-c2ccc3oc(-c4ccsc4)cc(=O)c3c2)cc(OC)c1OC | > 79 µM (inactive) | – |
| COc1ccc(-c2cnc3c(NC=O)cc(-c4cccc(NS(C)(=O)=O)c4)cn23)cc1OC | – | 4.84 |
| O=C(C[C@H]1C/C=C\CC[C@H](Cc2ccc(F)cc2)C(=O)O[C@@H](c2ccccc2)CNC1=O)N[C@H](CO)Cc1ccccc1 | > 79 µM (inactive) | – |
| Cc1cc(-c2nn3c(-c4ccccc4)nnc3s2)c2ccccc2n1 | > 79 µM (inactive) | – |
| COc1ccc(-c2cc(C(=O)N(C)Cc3nc4ccccc4c(=O)[nH]3)c3ccccc3n2)cc1OC | > 79 µM (inactive) | – |
| COc1ccc(C2CCCCCN2C(=O)C2CCN(S(=O)(=O)c3cccc(C(C)=O)c3)CC2)cc1 (configuration not stated) | > 79 µM (inactive) | – |
| COc1ccc2[nH]c(=O)c(CN(Cc3nnnn3Cc3ccccc3)CC3CCCO3)cc2c1 (configuration not stated) | > 79 µM (inactive) | – |
| COC(=O)c1cc2ccc(OC)cc2c2cc(OC)c(OC)cc12 | > 79 µM (inactive) | – |
| CCOCCCNC(=O)CCC(=O)NNc1nc2ccccc2c2nc(-c3ccccc3)nn12 | 54 µM (inactive) | – |
| Cc1nn(Cc2ccc(C(=O)N3CCN(C(=O)c4ccco4)CC3)o2)c(C)c1[N+](=O)[O-] | > 79 µM (inactive) | – |
| Cn1c(=O)n(CCc2ccccc2)c(=O)c2c1nc1n2CCN1Cc1ccco1 | – | 4.67 |
| O=C1NC(c2ccc(Cl)c([N+](=O)[O-])c2)Nc2ccccc21 (configuration not stated) | > 79 µM (inactive) | – |
| Cn1c(-n2c(CCCN3C(=O)c4ccccc4C3=O)nc3ccccc3c2=O)nc2ccccc21 | – | 4.58 |
| Fc1ccc(-n2cc(-c3ccccc3)c3c(N4CCOCC4)ncnc32)cc1 | > 79 µM (inactive) | – |
| CCOc1ccc(NC(=O)CN(C)C(=O)Cc2n[nH]c(=O)c3ccccc23)cc1OCC | > 79 µM (inactive) | – |
| CC(=O)Nc1cc(-c2ccccc2)cn2c(-c3cccc(C(C)=O)c3)cnc12 | – | 4.75 |
| O=C(CCc1nc2ccccc2c(=O)[nH]1)N1CCCc2ccccc21 | > 79 µM (inactive) | – |

| Structure (SMILES) | IC50 | pIC50 |
| --- | --- | --- |
| O=C(CCc1nc2ccccc2c(=O)[nH]1)N1CCN(c2ccc(F)cc2)CC1 | > 79 µM (inactive) | – |
| CCCCN(Cc1nc2ccccc2c(=O)[nH]1)C(=O)CN1C(=O)NC2(CCCCC2)C1=O | > 79 µM (inactive) | – |
| CC(=O)Nc1ccc(NS(=O)(=O)c2cc(-c3n[nH]c(=O)c4ccccc34)ccc2C)cc1 | > 79 µM (inactive) | – |
| COc1cc(-c2cnc3c(NC=O)cc(-c4cccc(NC(C)=O)c4)cn23)cc(OC)c1OC | > 79 µM (inactive) | – |
| COc1ccc(C(=O)Nc2cccc(/C(C)=N/NC(=O)c3ccc([N+](=O)[O-])c(C)c3)c2)cc1OC | > 79 µM (inactive) | – |
| COc1ccc(-c2cc3nc(-c4ccccc4)cc(N4CCN(C(=O)c5ccoc5)CC4)n3n2)cc1 | – | 5.19 |
| COc1ccc(NC(=O)CCCc2nc3ccccc3c(=O)[nH]2)cc1Cl | > 79 µM (inactive) | – |
| CC(Oc1ccc(F)cc1)C(=O)Nc1nc(-c2ccccn2)cs1 (configuration not stated) | 37.5 µM (inactive) | – |
| CC(=O)Nc1cccc(/C(C)=N/NC(=O)c2cccs2)c1 | > 79 µM (inactive) | – |
| CC(=O)c1cccc(-c2cnc3c(NC=O)cc(-c4ccccc4F)cn23)c1 | – | 4.75 |
| Cn1c(C(=O)NCc2cccs2)cc2c(=O)n(C)c3ccccc3c21 | > 79 µM (inactive) | – |
| Cc1ccc(C)c(NC(=O)C(Sc2nc3ccccc3c(=O)n2CC(C)C)c2ccccc2)c1 (configuration not stated) | > 79 µM (inactive) | – |
| Cc1cc(NC(=O)c2cccs2)cc(-c2nc3ncccc3o2)c1O | > 79 µM (inactive) | – |
| COc1cc(-c2cc(NC(C)=O)c3ncc(-c4ccccc4)n3c2)cc(OC)c1OC | > 79 µM (inactive) | – |
| CCSc1nnc(N)s1 | > 79 µM (inactive) | – |
| COc1ccc(CC(=O)N(Cc2ccccc2)c2ccccc2)cc1S(=O)(=O)N1CCOCC1 | > 79 µM (inactive) | – |
| O=C(NCCc1ccccc1Cl)c1ccc2nc3ccccc3c(=O)n2c1 | – | 4.78 |
| COc1ccc(N(CC(=O)N/N=C/c2cccs2)S(=O)(=O)c2ccc(OC)c(OC)c2)cc1 | – | 4.56 |
| O=C(NNC(=O)c1ccccc1OCc1ccccc1Cl)c1csc(N2CCOCC2)n1 | – | 4.65 |
| O=C(CCc1nc2ccccc2c(=O)[nH]1)Nc1ccc(Cl)c(Cl)c1 | – | 4.69 |
| CCOC(=O)COc1cc(OCC(=O)OCC)c2c3c(c(=O)oc2c1)CCCC3 | – | 4.79 |
| C[C@@H](C(=O)Nc1nc(-c2ccccn2)cs1)N1C(=O)C2CCCCC2C1=O (some centres not stated) | > 79 µM (inactive) | – |
| O=C(CCC(=O)N1CCN(C2CCCCC2)CC1)Nc1nnc(C(F)(F)F)s1 | > 79 µM (inactive) | – |
